Experimental data reported in patent US20230157996A1, “SMALL-MOLECULE INHIBITOR TARGETING EB VIRUS NUCLEAR ANTIGEN PROTEIN, PREPARATION METHOD AND USE THEREOF” (priority 2020, published 2023).

Tested on: C666-1 cells
Assay: C666-1 cell viability single concentration (50 μM) inhibition rate (Resazurin)
Assay type: cell-based
Conditions: Homo sapiens, C6661, 72 h, 50 μM compound, 72 hours, C666-1 cells; read-out: C666-1 cell viability single concentration (50 μM) inhibition rate, Ratio* (Inh %)
Method: In order to assess the effect of the EBNA1 inhibitor at the cellular level, the cell proliferation inhibition rate was tested, and the inhibition rate of inhibitor at a specific concentration on the proliferation of Epstein-Barr virus positive cell line C666-1 was detected.
In the test, 100 μL C666-1 cells were inoculated in a transparent 96-well plate, and each well contained 5×10^3 cells. After the cells were cultured in an incubator with 5% carbon dioxide at 37° C. for 24 hours, 10 μL compound at a concentration of 500 μmol/L was added into the cells, so that the final concentration of the compound was 50 μmol/L. Two replicate wells were set for each compound, the wells treated with DMSO were set as control wells (Ctrl), and the wells with cell culture medium only were set as blank wells (blank), and they were treated in the incubator with carbon dioxide at 37° C. for 72 hours. The cell viability was assessed using a redox indicator Resazurin. Specifically, 10 μL Resazurin at a concentration of 600 umol/L was added into each well, and incubated at 37° C. for 3 hours, and a Tecan microplate reader was used to detect the fluorescence signal at an excitation wavelength of 560 nm and an emission wavelength of 590 nm. The formula inh %=1−(F−Fblank)/(FCtrl−Fblank)×100% (where, F is the fluorescence intensity of the compound-added wells, FCtrl and Fblank are the readings of the control wells and blank wells, respectively) was used to calculate the inhibition rate of the compound on the proliferation of C666-1 cells, so as to assess the activity of the compound on Epstein-Barr virus positive cells.

Compound: COc1ccc(C(OC(C)=O)C23CC(c4cccc(C(=O)O)c4)(C2)C3)cc1 (stereo not shown) [Compound 1, 3-(3-(acetoxyl(4-methoxyphenyl)methyl)bicyclo[1. 1.1]pentan-1-yl)benzoic acid]
- inhibition at 50 µM: < 10%

Compound: CC(=O)OC(c1ccc(C(F)(F)F)nc1)C12CC(c3cccc(C(=O)O)c3)(C1)C2 (stereo not shown) [Compound 2, 3-(3-(acetoxyl(6-(trifluoromethyl)pyridin-3-yl)methyl)bicyclo[1.1.1]pentan-1-yl)benzoic acid]
- inhibition at 50 µM: < 10%

Compound: O=C(O)c1cccc(C23CC(C(O)c4ccc(C(F)(F)F)nc4)(C2)C3)c1 (stereo not shown) [Compound 3, 3-(3-(hydroxyl(6-(trifluoromethyl)pyridin-3-yl)methyl)bicyclo[1.1.1]pentan-1-yl)benzoic acid]
- inhibition at 50 µM: < 10%

Compound: O=C(O)c1cccc(C23CC(c4ccccc4)(C2)C3)c1 [Compound 4, 3-(3-phenylbicyclo[1.1.1]pentan-1-yl)benzoic acid]
- inhibition at 50 µM: < 10%

Compound: COC(=O)c1cccc(C23CC(c4ccccc4)(C2)C3)c1-n1cccc1 [Compound 5, Methyl 3-(3-phenylbicyclo[1.1.1]pentan-1-yl)-2-(1H-pyrrol-1-yl)benzoate]
- inhibition at 50 µM: < 10%

Compound: O=C(O)c1cccc(C23CC(c4ccccc4)(C2)C3)c1-n1cccc1 [Compound 6, 3-(3-phenylbicyclo[1.1.1]pentan-1-yl)-2-(1H-pyrrol-1-yl)benzoic acid]
- inhibition at 50 µM: < 10%

Compound: COC(=O)c1cccc(C23CC(c4ccc(OC)cc4)(C2)C3)c1-n1cccc1 [Compound 7, Methyl 3-(3-(4-methoxyphenyl)bicyclo[1.1.1]pentan-1-yl)-2-(1H-pyrrol-1-yl)benzoate]
- inhibition at 50 µM: < 10%

Compound: COc1ccc(C23CC(c4cccc(C(=O)O)c4-n4cccc4)(C2)C3)cc1 [Compound 8, 3-(3-(4-methoxyphenyl)bicyclo[1.1.1]pentan-1-yl)-2-(1H-pyrrol-1-yl)benzoic acid]
- inhibition at 50 µM: < 10%

Compound: COC(=O)c1cccc(N2CC3(CN(c4ccccc4)C3)C2)c1N [Compound 9, Methyl 2-amino-3-(6-phenyl-2,6-diazaspiro[3.3]heptan-2-yl)benzoate]
- inhibition at 50 µM: 10 to 30%

Compound: Nc1c(C(=O)O)cccc1N1CC2(CN(c3ccccc3)C2)C1 [Compound 10, 2-amino-3-(6-phenyl-2,6-diazaspiro[3.3]heptan-2-yl)benzoic acid]
- inhibition at 50 µM: < 10%

Compound: O=C(O)c1cccc(N2CC3(CN(c4ccccc4)C3)C2)c1-n1cccc1 [Compound 11, 3-(6-phenyl-2,6-diazaspiro[3.3]heptan-2-yl)-2-(1H-pyrrol-1-yl)benzoic acid]
- inhibition at 50 µM: < 10%

Compound: Nc1ccccc1N1CC2(C1)CN(c1cccc(C(=O)O)c1N)C2 [Compound 12, 2-amino-3-(6-(2-aminophenyl)-2,6-diazaspiro[3.3]heptan-2-yl)benzoic acid]
- inhibition at 50 µM: < 10%

Compound: COC(=O)c1cccc(N2CC3(CN(c4ccc(N)cc4)C3)C2)c1N [Compound 13, Methyl 2-amino-3-(6-(4-aminophenyl)-2,6-diazaspiro[3.3]heptan-2-yl)benzoate]
- inhibition at 50 µM: > 50%

Compound: Nc1ccc(N2CC3(C2)CN(c2cccc(C(=O)O)c2N)C3)cc1 [Compound 14, 2-amino-3-(6-(4-aminophenyl)-2,6-diazaspiro[3.3]heptan-2-yl)benzoic acid]
- inhibition at 50 µM: < 10%

Compound: COC(=O)c1cccc(N2CC3(C2)CN(c2cccc(C(=O)OC)c2N)C3)c1 [Compound 15, Methyl 2-amino-3-(6-(3-(methoxycarbonyl)phenyl)-2,6-diazaspiro[3.3]heptan-2-yl)benzoate]
- inhibition at 50 µM: < 10%

Compound: Nc1c(C(=O)O)cccc1N1CC2(CN(c3cccc(C(=O)O)c3)C2)C1 [Compound 16, 2-amino-3-(6-(3-carboxylphenyl)-2,6-diazaspiro[3.3]heptan-2-yl)benzoic acid]
- inhibition at 50 µM: < 10%

Compound: COC(=O)c1cccc(N2CC3(C2)CN(c2cccc(C(=O)OC)c2-n2cccc2)C3)c1 [Compound 17, Methyl 3-(6-(3-(methoxycarbonyl)phenyl)-2,6-diazaspiro[3.3]heptan-2-yl)-2-(1H-pyrrol-1-yl)benzoate]
- inhibition at 50 µM: 10 to 30%

Compound: O=C(O)c1cccc(N2CC3(C2)CN(c2cccc(C(=O)O)c2-n2cccc2)C3)c1 [Compound 18, 3-(6-(3-carboxylphenyl)-2,6-diazaspiro[3.3]heptan-2-yl)-2-(1H-pyrrol-1-yl)benzoic acid]
- inhibition at 50 µM: < 10%

Compound: COC(=O)c1cccc(N2CC3(CN(c4ccccc4N)C3)C2)c1-n1cccc1 [Compound 19, Methyl 3-(6-(2-aminophenyl)-2,6-diazaspiro[3.3]heptan-2-yl)-2-(1H-pyrrol-1-yl)benzoate]
- inhibition at 50 µM: > 50%

Compound: Nc1ccccc1N1CC2(C1)CN(c1cccc(C(=O)O)c1-n1cccc1)C2 [Compound 20, 3-(6-(2-aminophenyl)-2,6-diazaspiro[3.3]heptan-2-yl)-2-(1H-pyrrol-1-yl)benzoic acid]
- inhibition at 50 µM: < 10%

Compound: COC(=O)c1cccc(N2CC3(CN(c4ccccc4[N+](=O)[O-])C3)C2)c1-n1cccc1 [Compound 21, Methyl 3-(6-(2-nitrophenyl)-2,6-diazaspiro[3.3]heptan-2-yl)-2-(1H-pyrrol-1-yl)benzoate]
- inhibition at 50 µM: 10 to 30%

Compound: O=C(O)c1cccc(N2CC3(CN(c4ccccc4[N+](=O)[O-])C3)C2)c1-n1cccc1 [Compound 22, 3-(6-(2-nitrophenyl)-2,6-diazaspiro[3.3]heptan-2-yl)-2-(1H-pyrrol-1-yl)benzoic acid]
- inhibition at 50 µM: < 10%

Compound: COC(=O)c1ccc(N2CC3(C2)CN(c2cccc(C(=O)OC)c2-n2cccc2)C3)cc1 [Compound 23, Methyl 3-(6-(4-(methoxycarbonyl)phenyl)-2,6-diazaspiro[3.3]heptan-2-yl)-2-(1H-pyrrol-1-yl)benzoate]
- inhibition at 50 µM: < 10%

Compound: O=C(O)c1ccc(N2CC3(C2)CN(c2cccc(C(=O)O)c2-n2cccc2)C3)cc1 [Compound 24, 3-(6-(4-carboxylphenyl)-2,6-diazaspiro[3.3]heptan-2-yl)-2-(1H-pyrrol-1-yl)benzoic acid]
- inhibition at 50 µM: < 10%

Compound: COC(=O)c1cccc(N2CC3(CN(c4cccc([N+](=O)[O-])c4)C3)C2)c1[N+](=O)[O-] [Compound 25, Methyl 3-(6-(3-nitrophenyl)-2,6-diazaspiro[3.3]heptan-2-yl)-2-nitrobenzoate]
- inhibition at 50 µM: 10 to 30%

Compound: O=C(O)c1cccc(N2CC3(CN(c4cccc([N+](=O)[O-])c4)C3)C2)c1[N+](=O)[O-] [Compound 26, 3-(6-(3-nitrophenyl)-2,6-diazaspiro[3.3]heptan-2-yl)-2-nitrobenzoic acid]
- inhibition at 50 µM: < 10%

Compound: COC(=O)c1cccc(N2CC3(CN(c4cccc(NS(C)(=O)=O)c4)C3)C2)c1[N+](=O)[O-] [Compound 27, Methyl 3-(6-(3-(methylsulfonamido)phenyl)-2,6-diazaspiro[3.3]heptan-2-yl)-2-nitrobenzoate]
- inhibition at 50 µM: < 10%

Compound: CS(=O)(=O)Nc1cccc(N2CC3(C2)CN(c2cccc(C(=O)O)c2[N+](=O)[O-])C3)c1 [Compound 28, 3-(6-(3-(methylsulfonamido)phenyl)-2,6-diazaspiro[3.3]heptan-2-yl)-2-nitrobenzoic acid]
- inhibition at 50 µM: < 10%

Compound: COC(=O)c1cccc(N2CC3(CN(c4cccc(NC(C)=O)c4)C3)C2)c1N [Compound 29, Methyl 3-(6-(3-acetylaminophenyl)-2,6-diazaspiro[3.3]heptan-2-yl)-2-aminobenzoate]
- inhibition at 50 µM: 10 to 30%

Compound: CC(=O)Nc1cccc(N2CC3(C2)CN(c2cccc(C(=O)O)c2N)C3)c1 [Compound 30, 3-(6-(3-acetylaminophenyl)-2,6-diazaspiro[3.3]heptan-2-yl)-2-aminobenzoic acid]
- inhibition at 50 µM: < 10%

Compound: COC(=O)c1cccc(N2CC3(CN(c4cccc(NS(=O)(=O)C5CC5)c4)C3)C2)c1N [Compound 31, Methyl 2-amino-3-(6-(3-(cyclopropylsulfonamido)phenyl)-2,6-diazaspiro[3.3]heptan-2-yl)benzoate]
- inhibition at 50 µM: 10 to 30%

Compound: Nc1c(C(=O)O)cccc1N1CC2(CN(c3cccc(NS(=O)(=O)C4CC4)c3)C2)C1 [Compound 32, 2-amino-3-(6-(3-(cyclopropylsulfonamido)phenyl)-2,6-diazaspiro[3.3]heptan-2-yl)benzoic acid]
- inhibition at 50 µM: < 10%

Compound: COC(=O)c1cccc(N2CC3(CN(c4cccc(N)c4)C3)C2)c1N [Compound 33, Methyl 2-amino-3-(6-(3-aminophenyl)-2,6-diazaspiro[3.3]heptan-2-yl)benzoate]
- inhibition at 50 µM: 10 to 30%

Compound: Nc1cccc(N2CC3(C2)CN(c2cccc(C(=O)O)c2N)C3)c1 [Compound 34, 2-amino-3-(6-(3aminophenyl)-2,6-diazaspiro[3.3]heptan-2-yl)benzoic acid]
- inhibition at 50 µM: < 10%

Compound: O=C(O)c1cccc(N2CC(Oc3ccc(CO)cc3)C2)c1 [Compound 35, 3-(3-(4-(hydroxymethyl)phenoxy)azetidin-1-yl)benzoic acid]
- inhibition at 50 µM: 10 to 30%

Compound: Nc1c(C(=O)O)cccc1N1CC(Oc2ccc(CO)cc2)C1 [Compound 36, 2-amino-3-(3-(4-(hydroxymethyl)phenoxy)azetidin-1-yl)benzoic acid]
- inhibition at 50 µM: < 10%

Compound: COC(=O)c1cccc(N2CC(Oc3ccc(CO)cc3)C2)c1-n1cccc1 [Compound 37, Methyl 3-(3-(4-(hydroxymethyl)phenoxy)azetidin-1-yl)-2-(1H-pyrrol-1-yl)benzoate]
- inhibition at 50 µM: 30 to 50%
